Reference: ChEMBL document CHEMBL1143637, “Solid-phase binding assays of peptides using EGFP-Src SH2 domain fusion protein and biotinylated Src SH2 domain” (Bioorg Med Chem Lett, 2005)

Target: Proto-oncogene tyrosine-protein kinase Src (Homo sapiens, UniProt P12931)
Experiment: Inhibitory concentration against Src protein tyrosine kinase SH2 domain

Sequence of Proto-oncogene tyrosine-protein kinase Src (P12931 2-536 limits assumed): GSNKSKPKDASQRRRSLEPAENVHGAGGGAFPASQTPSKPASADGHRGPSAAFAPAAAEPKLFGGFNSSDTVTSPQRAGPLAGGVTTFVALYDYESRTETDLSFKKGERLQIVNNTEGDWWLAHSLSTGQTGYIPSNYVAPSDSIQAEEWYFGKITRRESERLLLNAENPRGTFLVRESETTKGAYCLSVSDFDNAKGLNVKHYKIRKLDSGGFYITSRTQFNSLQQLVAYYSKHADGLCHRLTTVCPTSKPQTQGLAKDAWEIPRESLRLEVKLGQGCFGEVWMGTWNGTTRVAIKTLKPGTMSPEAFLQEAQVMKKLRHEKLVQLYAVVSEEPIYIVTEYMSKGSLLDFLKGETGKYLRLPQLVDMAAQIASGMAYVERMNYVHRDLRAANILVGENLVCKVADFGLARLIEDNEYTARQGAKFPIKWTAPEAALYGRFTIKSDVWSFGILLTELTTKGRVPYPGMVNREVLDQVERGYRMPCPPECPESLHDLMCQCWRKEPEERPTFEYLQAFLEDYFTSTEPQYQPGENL

Row | SMILES | IC50
1 | CC[C@H](C)[C@H](N)C(=O)N[C@@H](CCC(=O)O)C(=O)N[C@@H](CCC(=O)O)C(=O)N[C@@H](Cc1ccc(O)cc1)C(=O)O | > 100 µM
2 | CC[C@H](C)[C@H](NC(=O)[C@H](CCC(=O)O)NC(=O)[C@H](CCC(=O)O)NC(=O)[C@@H](N)Cc1ccccc1)C(=O)O | > 100 µM
3 | CC[C@H](C)[C@H](N)C(=O)N[C@@H](CCC(=O)O)C(=O)N[C@@H](CCC(=O)O)C(=O)N[C@@H](Cc1ccccc1)C(=O)O | > 100 µM
4 | CC[C@H](C)[C@H](NC(=O)[C@H](CCC(=O)O)NC(=O)[C@H](CCC(=O)O)NC(=O)[C@@H](N)Cc1ccc(O)cc1)C(=O)O | > 100 µM
5 | CC[C@H](C)[C@H](N)C(=O)N[C@@H](CCC(=O)O)C(=O)N[C@@H](CCC(=O)O)C(=O)N[C@@H](Cc1ccc(OP(=O)(O)O)cc1)C(=O)O | > 100 µM
